Broadly, the vapor or sublimation pressure is the equilibrium pressure above the liquid or solid.

± gives the expanded uncertainty stated by the source.

These results are taken from the NIST ThermoML archive (doi:10.1021/je501135p).

The conditions of this data set: Liquid, Ebulliometric method (Recirculating still).

As to `O=C1C=CCCC1` [2-cyclohexen-1-one], the “vapor or sublimation pressure” value runs as follows: (444.48 K) 99 ± 1 kPa; (444.51 K) 99 ± 1 kPa.
In the case of `OC1CCCCC1` [cyclohexanol], the “vapor or sublimation pressure” value (433.38 K) is given as 99 ± 3 kPa.
As for `O=C1CCCCC1` [cyclohexanone], the “vapor or sublimation pressure” value (428.01 K) came out at 99 ± 3 kPa.
